Results taken from PMC11078216, “Discovery of potent and selective activity-based probes (ABPs) for the deubiquitinating enzyme USP30” (RSC Chemical Biology, 2024).
One block for each compound: values may come before it.

Tests used:
[1] = target: T1, PARK7 (Homo sapiens, UniProt Q99497); assay: ABPP chemical proteomics (LC-MS/MS) in HEK293T cells; type: cell-based; settings: 30 nM, 10 min
T1 construct: endogenous in cells; host or cells: HEK293T
Description: (§1) To explore the selectivity of IMP-2587 and IMP-2586 across the whole proteome, we performed quantitative activity-based protein profiling (ABPP) in HEK293T cells following treatment with IMP-2587 or IMP-2586 (Fig. 3a). After ABP incubation, cells were lysed, and probe-labelled proteins were ligated to biotinylated capture reagents.[27] […] USP30 was outcompeted by corresponding parent inhibitors for each ABP (Fig. 5b and d and Tables S3 and S5, ESI ^†), confirming the high potency and rapid engagement of IMP-2587 and IMP-2586 in cells. […] DESI1 and DESI2 are small ubiquitin-related modifier (SUMO) proteases,[3,29–32] and IMP-2587 and IMP-2586 may offer a starting point for future development of DESI ABPs. […]
(§2) d) Live cell probe incubation, lysate click chemistry and precipitation 6-well HEK293T cells were incubated with media containing compounds ABP 2 and ABP 4 at indicated concentrations for 1 h at 37 °C. The cells were washed with PBS and lysed with lysis buffer (50 μL (1% (v/v) Triton X-100, 0.1% (w/v) sodium dodecyl sulfate (SDS), EDTA-free complete protease inhibitor cocktail (1×, Roche) in PBS on ice for 10 min. The lysates were scraped and transferred to corresponding Lo-Bind Eppendorfs. Each lysate was sonicated for 1 minute, and the samples centrifuges at 5,000 x g at 4 °C for 5 minutes to pellet insoluble cellular debris. The supernatant was collected, and protein concentration was determined using the DC Protein Assay (Bio-Rad) as per manufacturer’s instructions, and normalised to lowest concentrated sample (e.g. 1 mg/mL, using lysis buffer). The following “click mixture” was prepared separately, preparing 6 μL for every 100 μL of […]
(§3) Capture reagent (AzRB/AzT for ABP 2, YnT/YnB for ABP 4 10 mM in DMSO, 1 vol; final concentration […]
(§4) CuSO4 (50 mM in water, 2 vol; final concentration in reaction 1 mM)
(§5) TCEP (50 mM in water, 2 vol; final concentration in reaction 1 mM)
(§6) TBTA (10 mM in DMSO, 1 vol; final concentration in reaction 100 µM)
(§7) The click mixture was vortexed and incubated at room temperature for 2 min before 6 μL of the mixture was added to every 100 μL of lysate. The reaction mixtures were shaken at room temperature for 1 h before being quenched with EDTA (500 mM in H2O) to a final concentration of 10 mM.
(§8) Proteins were precipitated by adding H2O (1 vol), MeOH (2 vol) and CHCl3 (0.5 vol), vortexing briefly then centrifuging at 17,000 × g for 5 min. The top H2O/MeOH layer was discarded and the middle layer of protein pellet and lower CHCl3 layer retained. The suspension was washed with MeOH (300 μL), and sonicated to break up the pellet. The proteins were pelleted by centrifugation at 10,000–17000 × g for 5–10 min or until a compact pellet was formed. The protein pellet was washed once more with MeOH (1 mL). The pellet was resuspended by sonicating and completely dissolving in 1% (w/v) SDS in PBS (to 5 mg/mL protein) before being made up to 1 mg/mL protein with PBS.
(§9) The lysate samples (10-20 μg) were mixed with 4× Laemmli sample loading buffer (250 mM Tris -HCl pH 6.8, 30% (v/v) glycerol, 10% (w/v) SDS, 0.05% (w/v) bromophenol blue) supplemented with 20% v/v β-mercaptoethanol (BME) and boiled for 10 min at 95 °C. The resulting protein samples were separated according to the protocol in section 3.2.c. Gel were imaged on a Typhoon imager (GE Healthcare; λEx 532 nm, λEm 575 nm for TAMRA. For protein loading quantification, gels were stained with Coomassie blue staining solution overnight, rinsed with water and imaged on an ImageQuant™ LAS 4000 imager (GE Healthcare). f) Neutravidin biotin enrichment (Affinity pull-down)
(§10) Click chemistry and precipitation steps were carried out as described in section 3.2.d, on at least 400ug of protein per sample. The pellet was resuspended by sonicating and completely dissolving in 1% (w/v) SDS in HEPES 50 mM pH 8.0, before being made up to 1 mg/mL protein with HEPES 50 mM pH 8.0 to […]
(§11) achieve a final concentration of 0.2% SDS. 20uL of each samples was collected as TL (Total lysate) […]
(§12) samples. […]

[2] = target: T2, NIT1 (Homo sapiens, UniProt Q86X76); assay: as above; type: cell-based
T2 construct: endogenous in cells; host or cells: HEK293T
T2 sequence (Q86X76 14-327): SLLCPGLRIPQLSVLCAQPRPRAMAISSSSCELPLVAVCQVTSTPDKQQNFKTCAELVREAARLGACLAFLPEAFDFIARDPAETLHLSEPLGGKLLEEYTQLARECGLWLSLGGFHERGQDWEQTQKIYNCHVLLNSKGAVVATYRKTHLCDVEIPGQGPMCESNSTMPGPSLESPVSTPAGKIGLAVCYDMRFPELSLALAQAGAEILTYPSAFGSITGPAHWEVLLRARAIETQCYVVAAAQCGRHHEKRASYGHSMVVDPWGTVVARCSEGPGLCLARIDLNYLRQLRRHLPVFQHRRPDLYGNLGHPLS
Description: as §1, §2, §3, §4, §5, §6, §7, §8, §9, §10, §11, §12

T1 sequence (Q99497 whole entry): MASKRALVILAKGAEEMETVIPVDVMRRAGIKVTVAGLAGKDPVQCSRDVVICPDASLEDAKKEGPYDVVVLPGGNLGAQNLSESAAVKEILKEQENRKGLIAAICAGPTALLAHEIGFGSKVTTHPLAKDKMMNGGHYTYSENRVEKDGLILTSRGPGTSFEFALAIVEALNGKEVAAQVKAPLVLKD

Structure (SMILES): N#CN1CC[C@@H](NC(=O)c2cc(-c3ccccc3Oc3ccc(N=[N+]=[N-])cc3)n[nH]2)C1 [IMP-2586]
Difference (log2 fold change of enrichment) ([1]; IMP-2586 labelling vs DMSO, HEK293T (Table S4, Fig.5c)): 1.30

Structure (SMILES): C#Cc1cccc(-c2cc(NC(=O)CC3CCN(C#N)C3)on2)c1 (stereo not shown) [IMP-2587]
Difference (log2 fold change of enrichment) ([1]; IMP-2587 labelling vs DMSO, HEK293T (Table S2, Fig.5a)): 1.32 | Difference (log2 fold change of enrichment) ([2]; IMP-2587 labelling vs DMSO, 30 nM, 10 min, HEK293T (Table S2, Fig.5a)): 2.01

Difference (log2 fold change of enrichment) ([2]; compound 1 out-competition with IMP-2587 labelling, HEK293T (Table S3, Fig.5b)): -1.86
Structure (SMILES): N#CN1CC[C@H](CC(=O)Nc2cc(-c3cccc(Cl)c3)no2)C1 [compound 1, reference compound]
